Results as given in patent publication US7786257B2, “Signal-1/signal-2 bifunctional peptide inhibitors” (priority 2000, dated 2010).

Legend:
NOD mice = test: Lymphocytic infiltration of pancreatic islets (insulitis) in NOD mice, histological scoring; format: in vivo, mouse; details: NOD males; for intact / normal islets without infiltration (grade-0 islets), percentage of islets examined: GAD65 peptide in CFA, two i.v. injections of 40 nanomoles
Source text: To evaluate the disease process by immunohistology (see, e.g., FIG. 12A-D), spleen, pancreas, or other target organs, e.g., the CNS for the MDP peptide BPI, or lung for the RSV peptide BPI, were removed from euthanized mice of each group and prepared for histology by fixing in neutral buffered formalin and embedding in paraffin, or snap frozen in O.C.T. medium. For scoring inflammation, minimums of five sections from each mouse were used to assess the blocking affect of a given BPI. For characterization of standard T-cell markers on cellular infiltrates, biotinylated mAb to various cell surface antigens will be incubated individually with the Cryostat sections (2 hours), followed by avidin-alkaline phosphatase (Vector laboratories). Alternatively, cell subsets will be phenotyped by standard flow cytometry methods as described in Murray et al., 24 Eur. J. Immunol. 2337-2344 (1994); Murray; 19 Immunology Today 157-163; and Schountz et al., 157 The Journal of Immunology 3893-3901 (1996). Finally, the students t-test or ANOVA will be used to estimate the statistical significance of differences observed between groups and individual mice.
These studies sought to confirm that the BPI containing the immunodominant GAD65 TCR epitope (EGAD-BPI) was biologically active in vivo and inhibited the development of pancreatic inflammation. Groups of three normal glycemic NOD males (8 weeks old) were immunized with the GAD65 (208-217) peptide in CFA as described in Example 4. The control group received PBS, and separate experimental groups received either the EGAD-BPI, the GAD peptide alone (i.e., the T-cell receptor epitope), or the CD11a peptide alone(i.e., the second signal receptor moiety) by two intravenous injections as described in Example 4. On day 10, the pancreata were removed to 10% PBS-buffered formalin, embedded in paraffin, and five-micron serial sections were examined histologically for mononuclear cell infiltration as previously described by Yoon, et al., Control of Autoimmune Diabetes in NOD Mice by GAD Expression or Suppression in β Cells, 284 Science 1183-1187 (1999), the entirety of which is hereby incorporated by reference.

[1] = system: live APC (spleenocytes) from NOD (I-A^g7), BALB/c, A.SW, A.BY mice; test: Flow cytometry of biotinylated peptide binding to live APC (spleenocytes) of inbred mouse strains; details: biotinylated peptide, live spleenocytes, flow cytometry
Protocol: Specifically, it was verified that the peptide binds to MHC molecules on live APC. Briefly, spleen cell density-gradient fractions (from mice), or PBL, or APC lines (from humans) were incubated in round bottom 96-well plates with increasing concentrations of individual biotinylated peptides at 37° C., 5% CO2 for 16 hours. Following binding of the BPI to the APC, Avidin-FITC was incubated with the cells on ice for 30 minutes, followed by biotinylated anti-Avidin for 1 hour, then again with Avidin-FITC. For BPI titrations, increasing concentrations (0.1-100 μM) of the biotinylated derivatives in sterile 0.5% BSA-PBS were incubated with the APC for 16 hours as above. […] Three-color analyses used Cy-Chrome or PE-conjugated antibodies to known surface markers of APC that were commercially available. Avidin-FITC and biotinylated anti-Avidin detection of the bound peptide was as previously described in Murray et al., 24 Eur. J. Immunol. 2337-2344 (1994); Murray; 19 Immunology Today 157-163; and Schountz et al., 157 The Journal of Immunology 3893-3901 (1996). Slight modifications of this method were used to test peptide inhibition (i.e., peptide affinity) and co-capping to the MHC and ICAM molecules directly on the live APC surface. […] Unlabeled peptide was used in a competition assay to derive the relative affinity of the BPI for the APC and the ability of the BPI to crosslink the MHC and ICAM molecules on the APC was examined by cocapping ICAM with an anti-MHC mAb. Here, cells were incubated with the BPI. Next, an anti-MHC mAb was added. After 30 minutes at 37° C., the cells were transferred to ice and stained with PE-labeled anti-ICAM (FIG. 7).
To obtain biotinylated BPI, the synthesized EGAD BPI was biotinylated with NHS-Biotin as described in Murray et al., 24 Eur. J. Immunol. 2337-2344 (1994). Spleen cell density-gradient fractions from normal (unimmunized) NOD, BALB/c and other MHC congenic strains were incubated in round bottom 96-well plates with increasing concentrations of individual biotinylated peptides at 37° C., 5% CO2 for 16 hours. Following binding of the BPI to the APC, Avidin-FITC was incubated with the cells on ice for 30 minutes, followed bybiotinylated anti-Avidin for 1 hour, then again with Avidin-FITC. For BPI titrations, increasing concentrations (0.1-100 μM) of the biotinylated derivatives in sterile 0.5% BSA-PBS were incubated with the APC for 16 hours as above. Three-color analyses used Cy-Chrome or PE-conjugated anti-B220 (mAb RA3-6B2 (CD45R B-cell marker), anti-MHC class II (KH74 or 10-3.62 mAb), or anti-ICAM-1 (3E2 mAb); (all purchased from PharMingen, San Diego, Calif.). Bound peptide was detected with avidin-FITC/biotinylated anti-avidin/avidin-FITC on live cells gated by forward/side scatter analysis. Controls contained all detecting reagents in absence of the biotinylated peptide; 20,000 events were analyzed for each histogram with a FACScan (Becton-Dickinson) flow cytometer.
To verify antigenic peptide binding to live APC, initial EGAD-BPI were screened for selective binding to NOD (I-A^g7) APC and assayed for simultaneous binding using monoclonal antibodies against either MHC-II or ICAM-1 by flow cytometry methods using live APC (Murray et al., 24 Eur. J. Immunol. 2337-2344 (1994); Murray; 19 Immunology Today 157-163; and Schountz et al., 157 The Journal of Immunology 3893-3901 (1996)). In this assay, increasing concentrations of the biotinylated-BPI, -CD11a(237-247) or -GAD65(208-217) peptide were incubated overnight with spleenocytes from each inbred strain. Bound peptide was detected with amplification of avidin-FITC fluorescence by the use of a biotinylated anti-avidin reagent, followed by a second round of avidin-FITC binding. Biotinylated peptide was incubated with 10^6 viable cells at a peptide concentrations of 50 μM. Bound peptide was detected with avidin-FITC/biotinylated anti-avidin-FITC. […]

EIAPVFVLLE (listed as Homo sapiens) [GAD65 peptide, reference compound]
intact / normal islets without infiltration (grade-0 islets), percentage of islets examined (NOD mice; day 10): 62%
mononuclear cell infiltration of islets (insulitis), in words (NOD mice; day 10, histology): showed the most insulitis
islets scored grade 2 or above (NOD mice; two i.v. injections, day 10): 37.5%
preferential binding to NOD APC compared with other strains (BALB/c, A.SW, A.BY) [1]: did not bind preferentially to NOD APC
preferential binding to NOD APC compared with other strains (BALB/c, A.SW, A.BY) ([1]; listed as GAD 65 moiety): did not display this increased binding

ITDGEATDSG (listed as Homo sapiens) [CD11a peptide, Signal-2 moiety (second signal receptor moiety) of EGAD-BPI, tested alone as control]
intact / normal islets without infiltration (grade-0 islets), percentage of islets examined (NOD mice; day 10): 66.7%
preferential binding to NOD APC compared with other strains (BALB/c, A.SW, A.BY) [1]: did not bind preferentially to NOD APC
preferential binding to NOD APC compared with other strains (BALB/c, A.SW, A.BY) ([1]; listed as LFA-1 (CD11a 237-247) peptide): bound similarly to all strain spleenocytes
preferential binding to NOD APC compared with other strains (BALB/c, A.SW, A.BY) ([1]; listed as LFA-1 moiety): did not display this increased binding
